Consider 21 molecules from patent publication US10208074B2, “Pyrazole compounds and method for making and using the compounds” (Rigel Pharmaceuticals, Inc., priority 2015, dated 2019).

Experiment [1] deals with IL-23 (p19/p40). Nature of the experiment: IL23-p19 ELISA, Dendritic, LPS (compound screening using DC cells). The format is cell-based, Human. The settings on record: PBMC-derived DC cells, IFNγ primed, LPS 1 μg/ml, 18 hours, 10 pt, read-out: IL23-p19 ELISA, Dendritic, LPS, 10 pt, EC50. An outline of the steps: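 Human PBMC-derived dendritic cells (7 d GM-CSF 100 ng/ml + IL-4 20 ng/ml), primed 24 h with IFNγ 50 ng/ml, pre-incubated 1 h with compound, then stimulated 18 h with LPS 1 μg/ml. Supernatant IL-23 measured by p19-capture/p40-detection chemiluminescent ELISA; CellTiter Glo checks cytotoxicity.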

Experiment [2] relates to IL-23p19. As to the kind of experiment: LPS induced IL23p19 in THP-1 cells (with IFNγ primed) assay. The format is cell-based, Human. The settings on record: THP-1 cells, IFNγ primed, LPS 1 ug/mL, 18 hours, 10 pt, read-out: IL23-p19 ELISA, THP1-IFNy, LPS, 10 pt EC50. An outline of the steps:
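THP-1 cells primed ~18 h with IFNγ (50 ng/mL), pre-incubated 1 h with compound at 37 °C, then stimulated 18 h with LPS (1 ug/mL final). Supernatant IL-23p19 measured by sandwich ELISA with chemiluminescent read-out; EC50 from curve fitting. Toxicity checked on the remaining cells by Cell Titer Glo.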

Where a name gives a salt, the structure may show the parent alone. Read-outs that look alike come from different tables or passages of the source.

`O=C(Nc1cn(CC2CCOCC2)nc1-c1ccccn1)c1csc(-c2cn[nH]c2)n1` [II-45, 2-(1H-pyrazol-4-yl)-N-(3-(pyridin-2-yl)-1-((tetrahydro-2H-pyran-4-yl)methyl)-1H-pyrazol-4-yl)thiazole-4-carboxamide formic acid salt]: the EC50 in experiment [1] (Homo sapiens, 18 h) was found to be 0.129 µM; in experiment [2] (Homo sapiens, THP-1, 18 h) it was 0.129 µM.
For the molecule `O=C(Nc1cn(CC2(CO)COC2)nc1-c1ccccn1)c1csc(-c2cn[nH]c2)n1` [II-47, N-(1-((3-(hydroxymethyl)oxetan-3-yl)methyl)-3-(pyridin-2-yl)-1H-pyrazol-4-yl)-2-(1H-pyrazol-4-yl)thiazole-4-carboxamide], the half-maximal effective concentration (EC50) is 3.21 µM in experiment [1] (Homo sapiens, 18 h) and 1.17 µM in experiment [2] (Homo sapiens, THP-1, 18 h).
With `CCN(CC)CCn1cc(NC(=O)c2csc(-c3cn[nH]c3)n2)c(-c2ccccn2)n1` [II-49, N-(1-(2-(diethylamino)ethyl)-3-(pyridin-2-yl)-1H-pyrazol-4-yl)-2-(1H-pyrazol-4-yl)thiazole-4-carboxamide], the EC50 was found to be 0.0812 µM in experiment [1] and 0.238 µM in experiment [2].
Regarding `COc1ccc(Cn2cc(-c3nc(C(=O)Nc4cn(C5CC(OC)C5)nc4-c4ccccn4)cs3)cn2)cc1` (stereo not drawn) [II-51, 2-(1-(4-methoxybenzyl)-1H-pyrazol-4-yl)-N-(1-(3-methoxycyclobutyl)-3-(pyridin-2-yl)-1H-pyrazol-4-yl)thiazole-4-carboxamide], the EC50 in experiment [1] (Homo sapiens, 18 h) was found to be 26.6 µM; in experiment [2] (Homo sapiens, THP-1, 18 h), 3.61 µM.
For `CC(C)(C)OC(=O)N1CC(n2cc(NC(=O)c3csc(-c4cn[nH]c4)n3)c(-c3ccccn3)n2)C1` [II-54], the EC50 worked out at 0.189 µM in experiment [1] (Homo sapiens, 18 h) and 0.171 µM in experiment [2] (Homo sapiens, THP-1, 18 h).
For the molecule `O=C(Nc1cn(C2CNC2)nc1-c1ccccn1)c1csc(-c2cn[nH]c2)n1` [II-55, N-{1-(Azetidin-3-yl)-3-(pyridine-2-yl)-1H-pyrazol-4-yl}-2-(1H-pyrazol-4-yl)thiazole-4-carboxamide], the EC50 stood at 0.0435 µM in experiment [1] (Homo sapiens, 18 h) and 0.0749 µM in experiment [2] (Homo sapiens, THP-1, 18 h).
Consider `COC1CC(n2cc(NC(=O)c3csc(-c4cn[nH]c4)n3)c(-c3ccccn3)n2)C1` (stereo not drawn) [II-57, N-{1-(3-Methoxycyclobutyl)-3-(pyridine-2-yl)-1H-pyrazol-4-yl}-2-(1H-pyrazol-4-yl)thiazole-4-carboxamide], for which the EC50 in experiment [1] (Homo sapiens, 18 h) is 0.0854 µM; in experiment [2] (Homo sapiens, THP-1, 18 h) it was 0.0418 µM.
`COc1ccc(-c2nn(C)cc2NC(=O)c2csc(-c3cn[nH]c3)n2)nc1` [II-58, N-(3-(5-methoxypyridin-2-yl)-1-methyl-1H-pyrazol-4-yl)-2-(1H-pyrazol-4-yl)thiazole-4-carboxamide]: the EC50 in experiment [1] (Homo sapiens, 18 h) was determined as 0.112 µM; in experiment [2] (Homo sapiens, THP-1, 18 h), 0.13 µM.
In the case of `CC(C)n1cc(NC(=O)c2csc(-c3cn[nH]c3)n2)c(-c2ccccn2)n1` [II-59, N-(1-isopropyl-3-(pyridin-2-yl)-1H-pyrazol-4-yl)-2-(1H-pyrazol-4-yl)thiazole-4-carboxamide], the EC50 was determined as 0.216 µM in experiment [1] (Homo sapiens, 18 h) and 0.422 µM in experiment [2] (Homo sapiens, THP-1, 18 h).
Regarding `O=C(Nc1cn(CCN2CCOCC2)nc1-c1ccccn1)c1csc(-c2cn[nH]c2)n1` [II-60, N-(1-(2-morpholinoethyl)-3-(pyridin-2-yl)-1H-pyrazol-4-yl)-2-(1H-pyrazol-4-yl)thiazole-4-carboxamide], the EC50 is 0.0533 µM in experiment [1] (Homo sapiens, 18 h) and 0.0473 µM in experiment [2] (Homo sapiens, THP-1, 18 h).
`CN1CCN(CCn2cc(NC(=O)c3csc(-c4cn[nH]c4)n3)c(-c3ccccn3)n2)CC1` [II-61, N-(1-(2-(4-methylpiperazin-1-yl)ethyl)-3-(pyridin-2-yl)-1H-pyrazol-4-yl)-2-(1H-pyrazol-4-yl)thiazole-4-carboxamide]: the EC50 in experiment [1] (Homo sapiens, 18 h) amounted to 0.0504 µM; in experiment [2] (Homo sapiens, THP-1, 18 h), 0.0225 µM.
`Cn1cc(NC(=O)c2csc(-c3cn[nH]c3)n2)c(C(F)(F)F)n1` [II-63, N-(1-methyl-3-(trifluoromethyl)-1H-pyrazol-4-yl)-2-(1H-pyrazol-4-yl)thiazole-4-carboxamide trifluoroacetate salt]: the EC50 in experiment [1] (Homo sapiens, 18 h) stood at 5.45 µM; in experiment [2] (Homo sapiens, THP-1, 18 h) it was 20.8 µM.
In the same order, the values of `O=C(Nc1cn([C@H]2C[C@@H](O)C2)nc1-c1ncccc1F)c1csc(-c2cn[nH]c2)n1` [II-65, N-(3-(3-fluoropyridin-2-yl)-1-((1s,3s)-3-hydroxycyclobutyl)-1H-pyrazol-4-yl)-2-(1H-pyrazol-4-yl)thiazole-4-carboxamide] are 0.0489 µM and 0.0373 µM.
Turning to `O=C(Nc1cn(CCOCC(F)(F)F)nc1-c1ccccn1)c1csc(-c2cc[nH]n2)n1` [II-66, 2-(1H-pyrazol-3-yl)-N-(3-(pyridin-2-yl)-1-(2-(2,2,2-trifluoroethoxy)ethyl)-1H-pyrazol-4-yl)thiazole-4-carboxamide], the EC50 in experiment [1] (Homo sapiens, 18 h) is 0.244 µM; in experiment [2] (Homo sapiens, THP-1, 18 h), 0.106 µM.
For the molecule `CCO[C@H]1C[C@@H](n2cc(NC(=O)c3csc(-c4cn[nH]c4)n3)c(C(N)=O)n2)C1` [II-70, N-(3-carbamoyl-1-((1s,3s)-3-ethoxycyclobutyl)-1H-pyrazol-4-yl)-2-(1H-pyrazol-4-yl)thiazole-4-carboxamide], the EC50 in experiment [1] (Homo sapiens, 18 h) amounted to 1.02 µM; in experiment [2] (Homo sapiens, THP-1, 18 h), 1.86 µM.
With `CCO[C@H]1C[C@@H](n2cc(NC(=O)c3csc(-c4cnn(COCC[Si](C)(C)C)c4F)n3)c(-c3ccccn3)n2)C1` [II-71, N-(1-((1s,3s)-3-ethoxycyclobutyl)-3-(pyridin-2-yl)-1H-pyrazol-4-yl)-2-(5-fluoro-1-((2-(trimethylsilyl)ethoxy)methyl)-1H-pyrazol-4-yl)thiazole-4-carboxamide], the EC50 was 10.4 µM in experiment [1] (Homo sapiens, 18 h) and 49.6 µM in experiment [2] (Homo sapiens, THP-1, 18 h).
For `CCO[C@H]1C[C@@H](n2cc(NC(=O)c3csc(-c4cn[nH]c4F)n3)c(-c3ccccn3)n2)C1` [II-72, N-(1-((1s,3s)-3-ethoxycyclobutyl)-3-(pyridin-2-yl)-1H-pyrazol-4-yl)-2-(5-fluoro-1H-pyrazol-4-yl)thiazole-4-carboxamide], the EC50 in experiment [1] turned out to be 0.14 µM; in experiment [2], 1.14 µM.
In the same order, the values of `CCO[C@H]1C[C@@H](n2cc(NC(=O)c3csc(-c4cn[nH]c4F)n3)c(-c3ccccn3)n2)C1` [II-73, N-(1-((1s,3s)-3-ethoxycyclobutyl)-3-(pyridin-2-yl)-1H-pyrazol-4-yl)-2-(5-fluoro-1H-pyrazol-4-yl)thiazole-4-carboxamide] are 0.343 µM and 0.369 µM.
As for `CCO[C@H]1C[C@@H](n2cc(NC(=O)c3csc(-c4cn[nH]c4)n3)c(-c3nnco3)n2)C1` [II-74, N-(1-((1s,3s)-3-ethoxycyclobutyl)-3-(1,3,4-oxadiazol-2-yl)-1H-pyrazol-4-yl)-2-(1H-pyrazol-4-yl)thiazole-4-carboxamide], the EC50 in experiment [1] (Homo sapiens, 18 h) came to 0.405 µM; in experiment [2] (Homo sapiens, THP-1, 18 h) it was 0.401 µM.
For the molecule `O=C(Nc1cn(C2CCOCC2)nc1-c1nnco1)c1csc(-c2cn[nH]c2)n1` [II-75, N-(3-(1,3,4-oxadiazol-2-yl)-1-(tetrahydro-2H-pyran-4-yl)-1H-pyrazol-4-yl)-2-(1H-pyrazol-4-yl)thiazole-4-carboxamide], the EC50 in experiment [1] (Homo sapiens, 18 h) was 0.537 µM; in experiment [2] (Homo sapiens, THP-1, 18 h), 2.49 µM.
`CC(C)O[C@H]1C[C@@H](n2cc(NC(=O)c3csc(-c4cn[nH]c4)n3)c(-c3ccccn3)n2)C1` [II-76, N-(1-((1,3-cis)-3-isopropoxycyclobutyl)-3-(pyridin-2-yl)-1H-pyrazol-4-yl)-2-(1H-pyrazol-4-yl)thiazole-4-carboxamide]: the EC50 in experiment [1] (Homo sapiens, 18 h) was found to be 0.0475 µM; in experiment [2] (Homo sapiens, THP-1, 18 h) it was 0.0524 µM.
